Test results taken from ChEMBL document CHEMBL3991601, “The target landscape of clinical kinase drugs” (Science, 2017).
Active and inactive are the calls of the source. For most assays here, no stated cut-off is given here; in the data, actives have a measured Kd and inactives only a lower limit.

Key:
[1] = biological target: Tyrosine-protein kinase ABL1 (Homo sapiens, UniProt P00519)
[2] = biological target: Cyclin-dependent kinase 3 (Homo sapiens, UniProt Q00526)
[3] = biological target: T1, Serine/threonine-protein kinase Chk1 (Homo sapiens, UniProt O14757)
T1 sequence (O14757 whole entry): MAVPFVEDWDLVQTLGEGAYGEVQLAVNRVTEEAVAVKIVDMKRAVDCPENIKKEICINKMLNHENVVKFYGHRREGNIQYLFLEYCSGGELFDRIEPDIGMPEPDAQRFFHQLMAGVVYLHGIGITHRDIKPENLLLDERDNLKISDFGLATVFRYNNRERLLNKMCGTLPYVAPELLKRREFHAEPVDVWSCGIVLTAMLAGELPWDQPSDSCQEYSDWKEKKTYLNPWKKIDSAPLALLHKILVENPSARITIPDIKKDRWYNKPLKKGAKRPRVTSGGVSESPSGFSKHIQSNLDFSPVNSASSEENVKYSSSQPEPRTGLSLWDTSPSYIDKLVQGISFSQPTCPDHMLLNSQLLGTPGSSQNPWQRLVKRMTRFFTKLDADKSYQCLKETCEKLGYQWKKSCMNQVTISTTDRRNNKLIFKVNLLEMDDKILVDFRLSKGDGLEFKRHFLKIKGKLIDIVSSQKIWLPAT

[4] = biological target: Ephrin type-A receptor 4 (Homo sapiens, UniProt P54764)
[5] = biological target: T2, Interleukin-1 receptor-associated kinase 4 (Homo sapiens, UniProt Q9NWZ3)
T2 sequence (Q9NWZ3 whole entry): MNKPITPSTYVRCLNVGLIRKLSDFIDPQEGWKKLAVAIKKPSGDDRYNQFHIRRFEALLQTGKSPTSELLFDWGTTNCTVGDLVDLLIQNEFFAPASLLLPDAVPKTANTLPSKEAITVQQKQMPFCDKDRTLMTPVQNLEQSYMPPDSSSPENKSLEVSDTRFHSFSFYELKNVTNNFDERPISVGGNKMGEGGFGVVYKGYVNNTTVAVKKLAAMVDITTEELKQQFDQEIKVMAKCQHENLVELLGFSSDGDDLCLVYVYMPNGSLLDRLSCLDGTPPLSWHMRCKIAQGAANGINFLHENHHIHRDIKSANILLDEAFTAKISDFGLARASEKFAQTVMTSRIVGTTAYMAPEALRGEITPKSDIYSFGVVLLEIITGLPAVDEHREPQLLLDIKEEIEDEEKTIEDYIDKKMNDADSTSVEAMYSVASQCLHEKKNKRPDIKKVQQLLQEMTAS

[6] = biological target: T3, Serine/threonine-protein kinase Nek1 (Homo sapiens, UniProt Q96PY6)
T3 sequence (Q96PY6 whole entry): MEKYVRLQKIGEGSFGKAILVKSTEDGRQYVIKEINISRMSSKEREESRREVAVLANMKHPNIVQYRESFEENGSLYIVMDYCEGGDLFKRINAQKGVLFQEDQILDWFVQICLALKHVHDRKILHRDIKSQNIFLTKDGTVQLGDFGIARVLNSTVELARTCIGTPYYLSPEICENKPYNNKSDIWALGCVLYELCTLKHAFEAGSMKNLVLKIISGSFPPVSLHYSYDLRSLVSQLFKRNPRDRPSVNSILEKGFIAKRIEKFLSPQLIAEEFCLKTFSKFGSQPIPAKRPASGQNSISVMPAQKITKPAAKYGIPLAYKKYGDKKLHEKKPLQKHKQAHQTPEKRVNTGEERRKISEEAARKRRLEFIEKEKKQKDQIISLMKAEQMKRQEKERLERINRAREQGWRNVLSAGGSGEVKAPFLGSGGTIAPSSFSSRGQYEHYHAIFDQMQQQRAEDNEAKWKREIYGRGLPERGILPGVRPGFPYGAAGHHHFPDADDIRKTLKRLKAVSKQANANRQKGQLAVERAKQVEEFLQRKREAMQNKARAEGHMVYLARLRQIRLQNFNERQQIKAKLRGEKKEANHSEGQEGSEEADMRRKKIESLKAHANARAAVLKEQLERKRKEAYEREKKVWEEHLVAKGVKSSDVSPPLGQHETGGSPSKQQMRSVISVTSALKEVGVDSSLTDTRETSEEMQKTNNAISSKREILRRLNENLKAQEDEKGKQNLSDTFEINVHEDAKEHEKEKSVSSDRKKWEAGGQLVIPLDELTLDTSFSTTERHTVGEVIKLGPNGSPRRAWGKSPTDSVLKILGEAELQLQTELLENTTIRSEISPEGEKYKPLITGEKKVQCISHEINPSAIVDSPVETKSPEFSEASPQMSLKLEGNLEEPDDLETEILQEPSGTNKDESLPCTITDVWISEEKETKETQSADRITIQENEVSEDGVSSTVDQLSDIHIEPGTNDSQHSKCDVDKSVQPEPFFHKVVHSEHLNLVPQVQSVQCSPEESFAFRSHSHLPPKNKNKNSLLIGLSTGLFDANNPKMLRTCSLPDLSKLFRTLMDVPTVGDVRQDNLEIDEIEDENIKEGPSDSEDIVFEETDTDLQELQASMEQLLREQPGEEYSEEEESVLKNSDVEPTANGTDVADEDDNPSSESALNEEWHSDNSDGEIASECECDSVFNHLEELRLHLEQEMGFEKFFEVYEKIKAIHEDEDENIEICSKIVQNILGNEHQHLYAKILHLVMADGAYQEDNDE

[7] = biological target: Serine/threonine-protein kinase pim-1 (Homo sapiens, UniProt P11309)
[8] = biological target: Rho-associated protein kinase 1 (Homo sapiens, UniProt Q13464)
[9] = biological target: Tyrosine-protein kinase SYK (Homo sapiens, UniProt P43405)
[10] = biological target: Platelet-derived growth factor receptor beta (Homo sapiens, UniProt P09619)
[11] = biological target: Serine/threonine-protein kinase B-raf (Homo sapiens, UniProt P15056)
Chain of Serine/threonine-protein kinase B-raf (P15056 whole entry): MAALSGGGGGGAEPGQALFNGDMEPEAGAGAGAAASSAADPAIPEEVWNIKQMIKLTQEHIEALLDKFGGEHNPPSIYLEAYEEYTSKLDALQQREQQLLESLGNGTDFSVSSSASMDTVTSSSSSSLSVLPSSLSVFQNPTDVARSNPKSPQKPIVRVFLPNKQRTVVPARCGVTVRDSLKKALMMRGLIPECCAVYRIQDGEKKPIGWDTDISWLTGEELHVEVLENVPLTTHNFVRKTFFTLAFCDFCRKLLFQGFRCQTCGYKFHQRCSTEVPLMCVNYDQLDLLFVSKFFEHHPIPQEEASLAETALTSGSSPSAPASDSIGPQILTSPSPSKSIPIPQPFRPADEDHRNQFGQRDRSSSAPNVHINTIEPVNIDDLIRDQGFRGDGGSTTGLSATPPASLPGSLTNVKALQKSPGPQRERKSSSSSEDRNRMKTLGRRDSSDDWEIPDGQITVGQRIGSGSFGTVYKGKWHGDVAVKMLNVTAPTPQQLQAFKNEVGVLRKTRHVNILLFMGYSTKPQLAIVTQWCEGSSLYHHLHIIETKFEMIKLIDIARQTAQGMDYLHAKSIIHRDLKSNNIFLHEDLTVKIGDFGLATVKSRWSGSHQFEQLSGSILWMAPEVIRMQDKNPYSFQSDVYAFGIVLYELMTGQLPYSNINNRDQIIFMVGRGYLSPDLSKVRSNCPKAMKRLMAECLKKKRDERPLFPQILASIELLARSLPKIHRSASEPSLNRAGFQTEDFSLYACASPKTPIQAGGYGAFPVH

Chain of Ephrin type-A receptor 4 (P54764 whole entry): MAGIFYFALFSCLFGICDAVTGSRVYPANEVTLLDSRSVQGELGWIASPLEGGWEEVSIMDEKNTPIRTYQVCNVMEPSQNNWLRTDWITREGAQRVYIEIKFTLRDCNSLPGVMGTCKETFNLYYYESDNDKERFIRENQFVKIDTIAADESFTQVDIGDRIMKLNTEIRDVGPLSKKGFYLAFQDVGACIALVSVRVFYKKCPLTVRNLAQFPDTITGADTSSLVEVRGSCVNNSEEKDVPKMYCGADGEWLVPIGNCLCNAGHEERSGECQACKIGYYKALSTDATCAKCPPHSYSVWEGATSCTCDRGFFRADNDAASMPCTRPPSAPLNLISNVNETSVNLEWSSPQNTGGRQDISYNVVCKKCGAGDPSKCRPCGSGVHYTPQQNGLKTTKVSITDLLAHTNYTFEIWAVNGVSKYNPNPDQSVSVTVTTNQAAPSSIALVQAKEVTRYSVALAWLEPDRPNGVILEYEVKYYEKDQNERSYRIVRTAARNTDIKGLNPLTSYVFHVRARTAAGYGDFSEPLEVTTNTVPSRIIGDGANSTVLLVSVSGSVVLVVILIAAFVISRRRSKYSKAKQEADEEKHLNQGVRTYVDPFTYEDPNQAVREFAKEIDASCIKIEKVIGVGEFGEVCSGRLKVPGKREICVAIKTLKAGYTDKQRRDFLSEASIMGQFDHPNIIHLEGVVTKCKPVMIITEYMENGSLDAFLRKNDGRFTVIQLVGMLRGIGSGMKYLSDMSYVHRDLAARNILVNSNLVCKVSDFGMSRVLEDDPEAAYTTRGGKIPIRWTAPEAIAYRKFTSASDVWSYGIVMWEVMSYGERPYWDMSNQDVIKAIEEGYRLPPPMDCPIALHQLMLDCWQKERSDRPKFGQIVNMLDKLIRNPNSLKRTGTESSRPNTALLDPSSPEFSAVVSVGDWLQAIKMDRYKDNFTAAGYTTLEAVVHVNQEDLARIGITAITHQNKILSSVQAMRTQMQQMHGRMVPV
Chain of Rho-associated protein kinase 1 (Q13464 whole entry): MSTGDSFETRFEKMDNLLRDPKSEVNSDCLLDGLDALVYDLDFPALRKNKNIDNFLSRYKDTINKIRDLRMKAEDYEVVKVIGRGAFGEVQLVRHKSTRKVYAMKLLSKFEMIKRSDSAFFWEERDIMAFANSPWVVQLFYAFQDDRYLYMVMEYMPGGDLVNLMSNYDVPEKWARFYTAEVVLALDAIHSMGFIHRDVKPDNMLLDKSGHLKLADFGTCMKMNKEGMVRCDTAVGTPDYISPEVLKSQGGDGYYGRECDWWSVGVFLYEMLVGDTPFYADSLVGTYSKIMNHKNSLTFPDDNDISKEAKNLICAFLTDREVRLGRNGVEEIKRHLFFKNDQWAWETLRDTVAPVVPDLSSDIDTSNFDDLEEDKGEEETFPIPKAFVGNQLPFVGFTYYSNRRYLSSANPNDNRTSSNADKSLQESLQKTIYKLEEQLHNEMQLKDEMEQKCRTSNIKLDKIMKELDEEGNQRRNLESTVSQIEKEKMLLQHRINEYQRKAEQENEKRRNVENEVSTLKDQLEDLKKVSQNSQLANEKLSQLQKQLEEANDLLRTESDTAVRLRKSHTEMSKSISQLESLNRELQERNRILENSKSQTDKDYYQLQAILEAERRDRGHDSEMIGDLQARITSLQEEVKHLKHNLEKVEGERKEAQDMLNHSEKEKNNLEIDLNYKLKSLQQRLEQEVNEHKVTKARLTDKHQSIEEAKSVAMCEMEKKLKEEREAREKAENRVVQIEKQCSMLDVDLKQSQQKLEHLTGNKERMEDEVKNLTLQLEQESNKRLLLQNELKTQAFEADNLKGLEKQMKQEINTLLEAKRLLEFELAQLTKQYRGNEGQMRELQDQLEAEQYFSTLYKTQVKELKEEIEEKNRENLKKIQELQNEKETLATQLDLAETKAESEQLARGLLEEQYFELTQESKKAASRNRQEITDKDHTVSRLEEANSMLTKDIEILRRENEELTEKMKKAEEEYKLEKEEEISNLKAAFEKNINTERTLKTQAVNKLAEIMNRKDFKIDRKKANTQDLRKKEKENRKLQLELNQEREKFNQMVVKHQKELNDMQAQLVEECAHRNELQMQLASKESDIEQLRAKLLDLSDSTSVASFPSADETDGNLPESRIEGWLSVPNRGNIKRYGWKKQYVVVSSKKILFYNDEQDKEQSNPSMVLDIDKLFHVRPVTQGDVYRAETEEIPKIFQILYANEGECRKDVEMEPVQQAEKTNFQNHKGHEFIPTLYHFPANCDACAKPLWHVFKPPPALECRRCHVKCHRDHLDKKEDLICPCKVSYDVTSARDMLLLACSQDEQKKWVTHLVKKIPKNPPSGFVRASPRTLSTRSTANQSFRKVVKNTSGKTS
Chain of Cyclin-dependent kinase 3 (Q00526 whole entry): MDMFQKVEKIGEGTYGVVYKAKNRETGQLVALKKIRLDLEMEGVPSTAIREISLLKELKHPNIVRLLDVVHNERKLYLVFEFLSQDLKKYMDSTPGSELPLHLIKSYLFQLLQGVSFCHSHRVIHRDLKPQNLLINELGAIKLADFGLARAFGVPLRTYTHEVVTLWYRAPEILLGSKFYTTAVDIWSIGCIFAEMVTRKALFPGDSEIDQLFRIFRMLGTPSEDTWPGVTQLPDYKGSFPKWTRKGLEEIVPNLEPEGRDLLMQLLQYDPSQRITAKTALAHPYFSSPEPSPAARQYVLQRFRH
Chain of Tyrosine-protein kinase ABL1 (P00519 whole entry): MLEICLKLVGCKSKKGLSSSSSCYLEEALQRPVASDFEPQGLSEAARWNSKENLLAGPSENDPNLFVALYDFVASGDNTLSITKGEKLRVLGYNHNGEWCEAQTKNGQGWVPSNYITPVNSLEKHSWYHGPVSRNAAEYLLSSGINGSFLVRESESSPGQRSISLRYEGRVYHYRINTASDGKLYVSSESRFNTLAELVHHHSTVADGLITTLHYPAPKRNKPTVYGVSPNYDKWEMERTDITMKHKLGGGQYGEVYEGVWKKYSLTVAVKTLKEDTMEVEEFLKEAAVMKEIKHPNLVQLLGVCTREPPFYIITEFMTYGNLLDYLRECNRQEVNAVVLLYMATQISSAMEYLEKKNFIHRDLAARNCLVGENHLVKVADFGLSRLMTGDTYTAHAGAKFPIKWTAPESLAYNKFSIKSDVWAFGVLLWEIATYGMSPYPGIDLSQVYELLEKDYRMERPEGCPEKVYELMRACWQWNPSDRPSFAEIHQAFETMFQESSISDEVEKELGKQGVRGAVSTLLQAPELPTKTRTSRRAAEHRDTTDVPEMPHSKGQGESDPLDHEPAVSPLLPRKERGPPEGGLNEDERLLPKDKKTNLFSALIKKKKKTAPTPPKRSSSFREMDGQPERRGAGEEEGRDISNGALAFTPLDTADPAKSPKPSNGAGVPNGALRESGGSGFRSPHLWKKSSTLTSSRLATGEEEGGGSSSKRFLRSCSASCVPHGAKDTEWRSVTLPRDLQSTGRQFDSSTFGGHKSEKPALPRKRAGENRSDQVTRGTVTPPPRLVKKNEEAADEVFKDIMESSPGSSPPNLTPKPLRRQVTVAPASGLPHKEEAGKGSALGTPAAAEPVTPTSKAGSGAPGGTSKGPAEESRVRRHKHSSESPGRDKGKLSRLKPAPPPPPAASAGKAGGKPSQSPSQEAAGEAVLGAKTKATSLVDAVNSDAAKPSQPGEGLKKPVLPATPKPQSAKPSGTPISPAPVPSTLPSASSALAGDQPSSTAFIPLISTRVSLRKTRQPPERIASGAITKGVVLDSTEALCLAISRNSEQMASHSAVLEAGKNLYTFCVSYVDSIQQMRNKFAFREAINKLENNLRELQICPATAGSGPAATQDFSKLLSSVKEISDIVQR
Chain of Serine/threonine-protein kinase pim-1 (P11309 whole entry): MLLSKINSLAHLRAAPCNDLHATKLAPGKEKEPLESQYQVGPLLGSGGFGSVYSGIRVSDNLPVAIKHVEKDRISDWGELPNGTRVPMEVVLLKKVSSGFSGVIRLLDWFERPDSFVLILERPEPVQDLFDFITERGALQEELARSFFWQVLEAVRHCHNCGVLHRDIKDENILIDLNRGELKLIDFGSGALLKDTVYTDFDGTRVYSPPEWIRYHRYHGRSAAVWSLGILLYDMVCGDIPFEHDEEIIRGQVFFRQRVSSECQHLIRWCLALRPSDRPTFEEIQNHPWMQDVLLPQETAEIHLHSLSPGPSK

Structure (SMILES)	Kd [1]	Kd [2]	Kd [3]	Kd [4]	Kd [5]	Kd [6]	Kd [7]	Kd [8]	Kd [9]	Kd [10]	Kd [11]
CNC(=O)c1cc(Oc2ccc(NC(=O)Nc3ccc(Cl)c(C(F)(F)F)c3)c(F)c2)ccn1 [REGORAFENIB]	0.753 µM (active)	> 30 µM (inactive)	> 30 µM (inactive)	> 30 µM (inactive)	> 30 µM (inactive)	> 30 µM (inactive)	> 30 µM (inactive)	> 30 µM (inactive)	> 30 µM (inactive)		
O=C(Nc1cccc(Cl)c1)Nc1ncc(CCNc2ncnc3ccsc23)s1 [SNS-314]		> 30 µM (inactive)		> 30 µM (inactive)		> 30 µM (inactive)					
COc1cc2nccc(Oc3ccc(NC(=O)Nc4cc(C)on4)c(Cl)c3)c2cc1OC [TIVOZANIB]		> 30 µM (inactive)	> 30 µM (inactive)	5.56 µM (active)	> 30 µM (inactive)	> 30 µM (inactive)	> 30 µM (inactive)	> 30 µM (inactive)	> 30 µM (inactive)	2.41 µM (active)	
Nc1nc(N)c2nc(-c3cccc(O)c3)c(-c3cccc(O)c3)nc2n1 [TG100-115]	> 30 µM (inactive)										
CN1CCC(COc2cnc(-c3cccc(Cn4nc(-c5cccc(C#N)c5)ccc4=O)c3)nc2)CC1 [TEPOTINIB]	> 30 µM (inactive)	> 30 µM (inactive)		> 30 µM (inactive)	> 30 µM (inactive)	> 30 µM (inactive)	> 30 µM (inactive)	> 30 µM (inactive)		> 30 µM (inactive)	> 30 µM (inactive)
CN1N=C(N)c2cn([C@@H]3O[C@H](COP(=O)(O)O)[C@@H](O)[C@H]3O)c3ncnc1c23 [TRICIRIBINE PHOSPHATE]	> 30 µM (inactive)	> 30 µM (inactive)	> 30 µM (inactive)	> 30 µM (inactive)	> 30 µM (inactive)	> 30 µM (inactive)		> 30 µM (inactive)	> 30 µM (inactive)	> 30 µM (inactive)	> 30 µM (inactive)
Cc1nc(N)sc1-c1ccnc(Nc2ccc(N3CCOCC3)cc2)n1 [CYC-116]						1.1 µM (active)					> 30 µM (inactive)
CN1CCC(CNc2ccc3ncc(-c4cccc(OC(F)(F)F)c4)n3n2)CC1 [SGI-1776]	> 30 µM (inactive)	> 30 µM (inactive)	> 30 µM (inactive)	> 30 µM (inactive)	> 30 µM (inactive)	> 30 µM (inactive)		> 30 µM (inactive)	> 30 µM (inactive)	1.61 µM (active)	> 30 µM (inactive)
CCCS(=O)(=O)Nc1ccc(F)c(C(=O)c2c[nH]c3ncc(-c4ccc(Cl)cc4)cc23)c1F [VEMURAFENIB]	> 30 µM (inactive)	> 30 µM (inactive)	> 30 µM (inactive)	> 30 µM (inactive)	> 30 µM (inactive)	> 30 µM (inactive)	> 30 µM (inactive)	> 30 µM (inactive)	> 30 µM (inactive)	> 30 µM (inactive)	
